According to PMC4728427, “Mechanism of allosteric activation of TMEM16A/ANO1 channels by a commonly used chloride channel blocker” (British Journal of Pharmacology, 2016):
Like-named read-outs stand apart in the source and are kept apart here.

Molecular target: T1, Mouse TMEM16A (Mus musculus, UniProt Q8BHY3)
T1 construct: expressed in transfected cells; host or cells: HEK-293T
T1 sequence (Q8BHY3 1-960): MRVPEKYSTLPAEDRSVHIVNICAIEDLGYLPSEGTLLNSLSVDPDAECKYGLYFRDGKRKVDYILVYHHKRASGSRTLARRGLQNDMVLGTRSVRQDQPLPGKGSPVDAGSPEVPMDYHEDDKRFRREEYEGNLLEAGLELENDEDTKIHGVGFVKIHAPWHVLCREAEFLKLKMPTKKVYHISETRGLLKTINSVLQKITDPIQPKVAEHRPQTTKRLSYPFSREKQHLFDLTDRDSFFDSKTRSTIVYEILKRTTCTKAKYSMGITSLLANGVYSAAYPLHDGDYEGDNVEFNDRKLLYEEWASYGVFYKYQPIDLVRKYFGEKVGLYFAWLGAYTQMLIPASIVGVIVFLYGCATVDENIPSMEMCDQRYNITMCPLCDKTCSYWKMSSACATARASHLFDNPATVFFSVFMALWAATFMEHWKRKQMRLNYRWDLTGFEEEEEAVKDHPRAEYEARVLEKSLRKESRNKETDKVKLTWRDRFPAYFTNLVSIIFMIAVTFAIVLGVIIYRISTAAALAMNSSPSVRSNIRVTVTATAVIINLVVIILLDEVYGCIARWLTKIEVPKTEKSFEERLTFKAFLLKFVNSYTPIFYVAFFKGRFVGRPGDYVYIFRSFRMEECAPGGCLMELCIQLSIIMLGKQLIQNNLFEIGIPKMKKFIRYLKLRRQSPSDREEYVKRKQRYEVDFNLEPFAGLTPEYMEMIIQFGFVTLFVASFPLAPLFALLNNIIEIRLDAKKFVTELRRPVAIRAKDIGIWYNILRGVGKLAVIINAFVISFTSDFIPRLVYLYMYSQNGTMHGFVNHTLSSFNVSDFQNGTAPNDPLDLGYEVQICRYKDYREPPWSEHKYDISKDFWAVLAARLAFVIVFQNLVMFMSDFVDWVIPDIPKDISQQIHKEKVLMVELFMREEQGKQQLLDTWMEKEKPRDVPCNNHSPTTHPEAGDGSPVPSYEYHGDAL
Assay: Whole-cell [A9C]ext-inhibition relationship (Hill and Woodhull fits), 12.5 μM [Ca2+]i
Format: cell-based
Experimental: Mouse TMEM16A (GenBank NM_178642) subcloned into pcDNA3.1 vector was used in this study (Alexander et al., 2013). HEK‐293T cells were cultured as previously described (Smith et al., 2013) and transfected with 0.5–1 μg of TMEM16A and 0.1 μg of CD8 constructs using Fugene HD (Promega, Madison, WI, USA) according to the manufacturer's instructions. Cells were used ~12–36 h after transfection. Transfected cells were visualized using the anti‐CD8 antibody‐coated beads method (Jurman et al., 1994).
The intracellular solution contained (mM) 130 CsCl, 10 EGTA, 1 MgCl2, 10 HEPES and 8 CaCl2 to obtain ~300 nM of [Ca^2+]i; pH was adjusted to 7.3 with NaOH. The intracellular solutions containing ~600 nM, ~1000 nM and ~12.5 μM [Ca^2+]i were obtained by replacing EGTA with equimolar H‐EDTA and by adding 2.1, 3.1 and 7.8 mM CaCl2 respectively. The extracellular solution contained (mM) 150 NaCl, 1 CaCl2, 1 MgCl2, 10 glucose, 10 D‐mannitol and 10 HEPES; pH was adjusted to 7.4 with NaOH. […] A9C was dissolved in DMSO (stock concentration, 300 mM); thus, the final concentration of DMSO was ≤1%. Aliquots of the stock solution were kept at −20° and used within 5 days.
The relationship between [A9C] and TMEM16A current inhibition was obtained by measuring the currents at the end of 250 ms V m steps from +20 to +120 mV in 20 mV increments elicited every 2 s from a holding V m of −70 mV. TMEM16A currents measured in the presence of A9C (I b) were normalized to currents measured in the absence of A9C (I 0) and plotted against [A9C]. The concentration–response curves obtained were fit with the Hill equation of the form: (1) Ib/Io=1/1+A9C/Ki^γ,
where K i is the apparent A9C dissociation constant from the inhibitory site and γ is the coefficient of cooperativity (Hill coefficient).
The relationships between the K i or K d and V m were fitted with the Woodhull equation (Woodhull, 1973): (3) Kx=Kx0exp−δxzFVm/RT.
The subscript ‘x’ stands for either ‘i’ or ‘d’. Thus, K i(0) or K d(0) are the apparent A9C dissociation constants from the inhibitory or activating site at 0 mV, z is the A9C electric valence (−1), δ i or δ d is the fraction of the V m sensed by A9C when bound to the inhibitory or activating site, F is Faraday's constant, R is the universal gas constant and T is the absolute temperature.
To investigate the precise mechanism by which extracellular A9C inhibits TMEM16A channels, macroscopic whole‐cell currents were recorded in the presence of 12.5 μM [Ca^2+]i and in response to 250 ms steps to various V m test pulse from a holding V m of −70 mV. The negative holding V m was used to prevent channel block before the test pulse was elicited. […] The time‐course of this decrease was described by a single‐exponential function characterized by a time constant τ B. The extent of the decrease in current was measured for various [A9C]ext and various V m test pulse and then plotted relative to the current measured in the absence of A9C (I 0) (Figure 3B). The γ values were close to 1 at each V m. In contrast, K i decreased as the V m was increased (Figure 3C). […] Thus, A9C appeared to block TMEM16A channels according to a Woodhull mechanism, consistent with a single A9C molecule blocking the channel pore.

O=C(O)c1c2ccccc2cc2ccccc12 [A9C, Anthracene‐9‐carboxylic acid]
Ki (12.5 μM [Ca2+]i (rounded in Discussion), read-out: K i(0)): ~300 µM
δ i (fraction of Vm sensed at inhibitory site, Woodhull fit) (12.5 μM [Ca2+]i, extracellular A9C): 0.62 ± 0.03
Ki (12.5 μM [Ca2+]i, extracellular A9C, read-out: K i(0) (apparent dissociation constant from inhibitory site at 0 mV)): 322 ± 13 µM
Ki (+80 mV, mouse TMEM16A (rounded in Discussion), read-out: K i): ~50 µM
γ (slope factor, inhibition) (V m 20, 12.5 μM [Ca2+]i): 0.86 ± 0.14 (n = 8)
Ki (V m 20, 12.5 μM [Ca2+]i, [A9C]ext, unit inferred, read-out: K i (Hill fit of inhibition)): 198 ± 47 µM
γ (slope factor, inhibition) (V m 40, 12.5 μM [Ca2+]i): 0.85 ± 0.15 (n = 8)
Ki (V m 40, 12.5 μM [Ca2+]i, [A9C]ext, unit inferred, read-out: K i (Hill fit of inhibition)): 113 ± 26 µM
γ (slope factor, inhibition) (V m 60, 12.5 μM [Ca2+]i): 0.8 ± 0.2 (n = 8)
Ki (V m 60, 12.5 μM [Ca2+]i, [A9C]ext, unit inferred, read-out: K i (Hill fit of inhibition)): 68 ± 20 µM
γ (slope factor, inhibition) (V m 80, 12.5 μM [Ca2+]i): 0.8 ± 0.17 (n = 8)
Ki (V m 80, 12.5 μM [Ca2+]i, [A9C]ext, unit inferred, read-out: K i (Hill fit of inhibition)): 44 ± 10 µM
γ (slope factor, inhibition) (V m 100, 12.5 μM [Ca2+]i): 0.8 ± 0.23 (n = 8)
Ki (V m 100, 12.5 μM [Ca2+]i, [A9C]ext, unit inferred, read-out: K i (Hill fit of inhibition)): 31 ± 12 µM
γ (slope factor, inhibition) (V m 120, 12.5 μM [Ca2+]i): 0.71 ± 0.16 (n = 8)
Ki (V m 120, 12.5 μM [Ca2+]i, [A9C]ext, unit inferred, read-out: K i (Hill fit of inhibition)): 20 ± 8 µM
electric distance of inhibiting binding site (δ i) (Woodhull analysis, rounded): ~ 0.6
penetration into the pore length (voltage field) to reach inhibitory site (from δ i): approximately 60%
γ from Hill fit of [A9C]ext-inhibition relationships (rounded in Discussion): ≈ 1
